Experimental data from the CheMixHub viscosity set.

Assay: xn = mol fraction of the nth substance listed

CCCCCCO + CO
298.15 K, 101.33 kPa
Conditions	viscosity [mPa·s]
x2 = 0.1054	3.881
x2 = 0.2016	3.351
x2 = 0.3144	2.778
x2 = 0.4093	2.348
x2 = 0.5053	1.968
x2 = 0.6027	1.615
x2 = 0.7094	1.278
x2 = 0.8038	1.001
x2 = 0.9022	0.7601

CC(C)CC(C)(C)C + COC(=O)OC
viscosity [mPa·s], 101 kPa
Conditions	x2 = 0.1235	x2 = 0.2408	x2 = 0.3521	x2 = 0.4583	x2 = 0.5592	x2 = 0.6554	x2 = 0.7475	x2 = 0.8352	x2 = 0.9193
293.15 K	0.4747	0.4613	0.4659	0.4672	0.4798	0.4974	0.5114	0.5331	0.5636
298.15 K	0.4464	0.4356	0.44	0.4397	0.4483	0.4637	0.4815	0.5015	0.5303
303.15 K	0.4224	0.4116	0.4159	0.4143	0.4231	0.4353	0.4517	0.4719	0.5004
313.15 K	0.3788	0.3706	0.373	0.3699	0.3779	0.3929	0.4049	0.4201	0.4475
323.15 K	0.3424	0.3338	0.3339	0.3344	0.3399	0.3487	0.3616	0.376	0.3958

C=C(C)[C@@H]1CC=C(C)CC1 + COC(C)(C)C
298.15 K, 101.33 kPa
Conditions	viscosity [mPa·s]
x2 = 0.0694	0.807
x2 = 0.1591	0.755
x2 = 0.257	0.7
x2 = 0.3599	0.641
x2 = 0.491	0.572
x2 = 0.6599	0.486
x2 = 0.7344	0.449
x2 = 0.8017	0.418
x2 = 0.8714	0.386
x2 = 0.9373	0.356
x2 = 0.9672	0.344

CCC(C)N (centres undefined) + COCCO
308.15 K, 101 kPa
Conditions	viscosity [mPa·s]
x2 = 0.1256	0.5105
x2 = 0.2443	0.6223
x2 = 0.3566	0.7355
x2 = 0.463	0.8498
x2 = 0.564	0.9507
x2 = 0.6599	1.015
x2 = 0.7511	1.066
x2 = 0.838	1.121
x2 = 0.9209	1.175

CCOCC + COCCO
298.15 K, 101 kPa
Conditions	viscosity [mPa·s]
x2 = 0.0976	0.2661
x2 = 0.1958	0.307
x2 = 0.2944	0.363
x2 = 0.3936	0.4399
x2 = 0.4933	0.5713
x2 = 0.5936	0.6782
x2 = 0.6944	0.8546
x2 = 0.7957	1.065
x2 = 0.8976	1.33

O=C1CCCCC1 + COCCO
298.15 K, 101 kPa
Conditions	viscosity [mPa·s]
x1 = 0.0793	1.432
x1 = 0.1624	1.369
x1 = 0.2494	1.33
x1 = 0.3408	1.325
x1 = 0.4367	1.33
x1 = 0.5377	1.354
x1 = 0.644	1.402
x1 = 0.7562	1.504
x1 = 0.8746	1.665

CCCCCCCCCCCCCC[P+](CCCCCC)(CCCCCC)CCCCCC.c1nnc[n-]1 + COCCOCCOCCOCCOC
viscosity [mPa·s], 100 kPa
Conditions	x1 = 0.418	x1 = 0.516	x1 = 0.61	x1 = 0.694	x1 = 0.751	x1 = 0.804	x1 = 0.874	x1 = 0.954
293.15 K	66	111	167	272	360	508	679	994
298.15 K	53	88	128	208	269	374	491	706
303.15 K	–	70	101	162	205	281	364	512
308.15 K	–	57	81	129	160	217	275	382
313.15 K	–	–	66	104	126	169	212	289
318.15 K	–	–	54	86	102	135	166	223
323.15 K	–	–	–	71	83	109	133	176

O=C1CCCCC1 + COc1ccccc1
viscosity [mPa·s], 101.33 kPa
Conditions	x1 = 0.1002	x1 = 0.2031	x1 = 0.303	x1 = 0.402	x1 = 0.5032	x1 = 0.6017	x1 = 0.7	x1 = 0.7976	x1 = 0.8978
298.15 K	1.048	1.096	1.131	1.194	1.245	1.331	1.44	1.558	1.732
303.15 K	0.968	1.004	1.044	1.092	1.151	1.22	1.304	1.421	1.578
308.15 K	0.905	0.93	0.966	1.012	1.06	1.127	1.207	1.306	1.444

CC(=O)CC(C)C + CS(C)=O
303.15 K, 101 kPa
Conditions	viscosity [mPa·s]
x2 = 0.1332	0.6376
x2 = 0.257	0.7283
x2 = 0.3722	0.8149
x2 = 0.4798	0.9229
x2 = 0.5804	1.042
x2 = 0.6748	1.16
x2 = 0.7635	1.306

O=C(OCc1ccccc1)c1ccccc1O + CS(C)=O
303.15 K, 101 kPa
Conditions	viscosity [mPa·s]
x1 = 0.079	2.299
x1 = 0.1284	2.529
x1 = 0.1867	2.933
x1 = 0.2564	3.273
x1 = 0.3413	3.776
x1 = 0.4467	4.342
x1 = 0.5812	4.995

O=C1CCCCC1 + CS(C)=O
303.15 K, 101 kPa
Conditions	viscosity [mPa·s]
x2 = 0.099	1.721
x2 = 0.1791	1.669
x2 = 0.2687	1.649
x2 = 0.3683	1.648
x2 = 0.4653	1.657
x2 = 0.5628	1.675
x2 = 0.6679	1.698
x2 = 0.7877	1.725
x2 = 0.8903	1.755

CC(=O)CC(C)C + Cc1ccc(C)cc1
298.15 K, 101 kPa
Conditions	viscosity [mPa·s]
x1 = 0.1409	0.59
x1 = 0.226	0.583
x1 = 0.3369	0.576
x1 = 0.4463	0.569
x1 = 0.5673	0.563
x1 = 0.6366	0.559
x1 = 0.8014	0.551
x1 = 0.9061	0.546

O=C1CCCCC1 + Cc1ccc(C)cc1
viscosity [mPa·s], 101.33 kPa
Conditions	x1 = 0.1013	x1 = 0.2048	x1 = 0.3016	x1 = 0.4023	x1 = 0.5186	x1 = 0.6081	x1 = 0.7034	x1 = 0.7967	x1 = 0.9005
298.15 K	0.655	0.702	0.762	0.834	0.938	1.04	1.194	1.35	1.617
303.15 K	0.612	0.657	0.711	0.777	0.871	0.965	1.088	1.237	1.481
308.15 K	0.574	0.618	0.667	0.728	0.819	0.897	1.01	1.144	1.354
